# Patent US20260256792A1, “TREATMENT OF CHRONIC SPONTANEOUS URTICARIA BY ADMINISTERING (R)-2-[3-[4-AMINO-3-(2-FLUORO-4-PHENOXY-PHENYL)PYRAZOLO[3,4-D]PYRIMIDIN-1-YL]PIPERIDINE-1-CARBONYL]-4-METHYL-4-[4-(OXETAN-3-YL)PIPERAZIN-1-YL]PENT-2-ENENITRILE” (priority 2023, published 2026)
# Test system: moderate-to-severe chronic spontaneous urticaria (CSU)
# Assay: Phase 2 CSU study: urticaria activity score over 7 days (UAS7)
# Format: in vivo, human
# Settings: Omalizumab-Naïve
# From the text: The study comprises a 12 week, randomized, double-blind, placebo-controlled, multi-center, dose-ranging efficacy and safety phase, followed by a 40 week open label extension (OLE) phase (see FIG. 1). The study consists of three phases and an optional OLE phase. […] Clinically, CSU is characterized by the spontaneous and recurrent appearance of pruritic hives. The proposed primary endpoints were the UAS7 at Week 12 in EU and EU reference countries and the ISS7 in the US. Regardless of where a participant was from, all assessments were the same. The UAS7 score is a composite score containing both the HSS7 and the ISS7. This allowed a global assessment of the two key components of urticaria: hives and itch. […] The UAS is a validated PRO measure. […] The daily UAS scores range from 0 to 6 point/day. […] Patients were to complete the UAS using the e-diary. […] The following secondary endpoints were to be analyzed using the same approach as for the primary endpoint: • Change from baseline in UAS7 at Week 4 • Change from baseline in UAS7 at Week 12 (for US and US reference countries) • Change from baseline in ISS7 at Week 12 (except US and US reference countries) • Change from baseline in HSS7 at Week 12 The following responder secondary endpoints were to be analyzed using the Cochran-Mantel-Haenszel test adjusted by region: • Proportion of participants with UAS7<6 at Week 12 • Proportion of participants with UAS7=0 at Week 12 Participants who received selected prohibited medications and/or rescue medications were to be considered as non-responders for time points after the medication usage. For other participants, all available data including those collected during the off-treatment period were to be used to determine the responder/non-responder status. Missing data were to be considered as non-responders.
# [1] = Baseline Total IgE (IU/mL) ≥300, 400 mg BID
# [2] = Baseline Total IgE (IU/mL) ≥300, 400 mg QPM
# [3] = Baseline Total IgE (IU/mL) ≥300, 400 mg TID
# [4] = Baseline UAS7 score <28, 400 mg BID
# [5] = Baseline UAS7 score <28, 400 mg QPM
# [6] = Baseline UAS7 score <28, 400 mg TID
# [7] = Baseline UAS7 score ≥28, 400 mg BID
# [8] = Baseline UAS7 score ≥28, 400 mg QPM
# [9] = Baseline UAS7 score ≥28, 400 mg TID
# [10] = Duration of disease (years) 2-10, 400 mg BID
# [11] = Duration of disease (years) 2-10, 400 mg QPM
# [12] = Duration of disease (years) 2-10, 400 mg TID
# [13] = Duration of disease (years) <2, 400 mg BID
# [14] = Duration of disease (years) <2, 400 mg QPM
# [15] = Duration of disease (years) <2, 400 mg TID
# [16] = Duration of disease (years) >10, 400 mg BID
# [17] = Duration of disease (years) >10, 400 mg QPM
# [18] = Duration of disease (years) >10, 400 mg TID
# [19] = Ethnicity Non-Hispanic, 400 mg BID
# [20] = Ethnicity Non-Hispanic, 400 mg QPM
smiles,measurement,setting,value
"CC(C)(C=C(C#N)C(=O)N1CCC[C@@H](n2nc(-c3ccc(Oc4ccccc4)cc3F)c3c(N)ncnc32)C1)N1CCN(C2COC2)CC1 [rilzabrutinib, (R)-2-[3-[4-amino-3-(2-fluoro-4-phenoxy-phenyl)pyrazolo[3,4-d]pyrimidin-1-yl]piperidine-1-carbonyl]-4-methyl-4-[4-(oxetan-3-yl)piperazin-1-yl]pent-2-enenitrile]",Change from Baseline in UAS7 at Week 12: Mean (SD),"Baseline Total IgE (IU/mL) ≥100, 400 mg TID",−17.31 (9.51)
same,Change from Baseline in UAS7 at Week 12: LS Mean (SE),[1],−14.22 (3.59)
same,Change from Baseline in UAS7 at Week 12: LS Mean Diff vs. placebo (95% CI),[1],"−1.77 (−12.00, 8.47)"
same,Change from Baseline in UAS7 at Week 12: LS Mean (SE),[2],−8.04 (3.57)
same,Change from Baseline in UAS7 at Week 12: LS Mean Diff vs. placebo (95% CI),[2],"4.42 (−5.58, 14.42)"
same,Change from Baseline in UAS7 at Week 12: Mean (SD),[2],−9.60 (9.52)
same,Change from Baseline in UAS7 at Week 12: LS Mean (SE),[3],−14.94 (3.46)
same,Change from Baseline in UAS7 at Week 12: LS Mean Diff vs. placebo (95% CI),[3],"−2.48 (−12.37, 7.41)"
same,Change from Baseline in UAS7 at Week 12: Mean (SD),[3],−16.12 (9.22)
same,Change from Baseline in UAS7 at Week 12: LS Mean Diff vs. placebo (95% CI),[4],"−4.49 (−12.35, 3.38)"
same,Change from Baseline in UAS7 at Week 12: Mean (SD),[4],−11.43 (8.06)
same,Change from Baseline in UAS7 at Week 12: LS Mean (SE),[5],−5.87 (3.45)
same,Change from Baseline in UAS7 at Week 12: LS Mean Diff vs. placebo (95% CI),[5],"−1.46 (−10.06, 7.14)"
same,Change from Baseline in UAS7 at Week 12: Mean (SD),[5],−8.39 (3.86)
same,Change from Baseline in UAS7 at Week 12: LS Mean Diff vs. placebo (95% CI),[6],"−7.34 (−15.21, 0.52)"
same,Change from Baseline in UAS7 at Week 12: Mean (SD),[6],−13.43 (7.05)
same,Change from Baseline in UAS7 at Week 12: LS Mean (SE),[7],−17.23 (2.81)
same,Change from Baseline in UAS7 at Week 12: LS Mean Diff vs. placebo (95% CI),[7],"−4.13 (−11.78, 3.52)"
same,Change from Baseline in UAS7 at Week 12: Mean (SD),[7],−16.73 (14.20)
same,Change from Baseline in UAS7 at Week 12: LS Mean (SE),[8],−11.17 (2.39)
same,Change from Baseline in UAS7 at Week 12: LS Mean Diff vs. placebo (95% CI),[8],"1.94 (−5.16, 9.03)"
same,Change from Baseline in UAS7 at Week 12: LS Mean (SE),[9],−19.91 (2.64)
same,Change from Baseline in UAS7 at Week 12: LS Mean Diff vs. placebo (95% CI),[9],"−6.81 (−14.23, 0.62)"
same,Change from Baseline in UAS7 at Week 12: Mean (SD),[9],−22.66 (12.35)
same,Change from Baseline in UAS7 at Week 12: Mean (SD),"Baseline weight (kg) <72.9 (Median), 400 mg BID",−12.97 (9.84)
same,Change from Baseline in UAS7 at Week 12: Mean (SD),"Baseline weight (kg) <72.9 (Median), 400 mg QPM",−7.98 (7.20)
same,Change from Baseline in UAS7 at Week 12: Mean (SD),"Baseline weight (kg) <72.9 (Median), 400 mg TID",−20.83 (13.25)
same,Change from Baseline in UAS7 at Week 12: LS Mean (SE),[10],−12.88 (3.03)
same,Change from Baseline in UAS7 at Week 12: LS Mean Diff vs. placebo (95% CI),[10],"−0.05 (−8.24, 8.14)"
same,Change from Baseline in UAS7 at Week 12: Mean (SD),[10],−15.56 (14.75)
same,Change from Baseline in UAS7 at Week 12: LS Mean (SE),[11],−9.73 (2.58)
same,Change from Baseline in UAS7 at Week 12: LS Mean Diff vs. placebo (95% CI),[11],"3.11 (−4.51, 10.72)"
same,Change from Baseline in UAS7 at Week 12: Mean (SD),[11],−10.83 (9.70)
same,Change from Baseline in UAS7 at Week 12: LS Mean (SE),[12],−16.44 (3.07)
same,Change from Baseline in UAS7 at Week 12: LS Mean Diff vs. placebo (95% CI),[12],"−3.61 (−11.80, 4.58)"
same,Change from Baseline in UAS7 at Week 12: Mean (SD),[12],−17.51 (11.39)
same,Change from Baseline in UAS7 at Week 12: LS Mean (SE),[13],−16.30 (2.66)
same,Change from Baseline in UAS7 at Week 12: LS Mean Diff vs. placebo (95% CI),[13],"−9.24 (−17.02, −1.46)"
same,Change from Baseline in UAS7 at Week 12: Mean (SD),[13],−14.54 (10.00)
same,Change from Baseline in UAS7 at Week 12: LS Mean (SE),[14],−10.62 (3.36)
same,Change from Baseline in UAS7 at Week 12: LS Mean Diff vs. placebo (95% CI),[14],"−3.55 (−12.28, 5.17)"
same,Change from Baseline in UAS7 at Week 12: LS Mean (SE),[15],−17.20 (3.03)
same,Change from Baseline in UAS7 at Week 12: LS Mean Diff vs. placebo (95% CI),[15],"−10.14 (−18.42, −1.86)"
same,Change from Baseline in UAS7 at Week 12: Mean (SD),[15],−19.20 (11.00)
same,Change from Baseline in UAS7 at Week 12: LS Mean (SE),[16],8.87 (12.67)
same,Change from Baseline in UAS7 at Week 12: LS Mean Diff vs. placebo (95% CI),[16],"14.79 (−14.26, 43.85)"
same,Change from Baseline in UAS7 at Week 12: Mean (SD),[16],−1.83 (NC)
same,Change from Baseline in UAS7 at Week 12: LS Mean Diff vs. placebo (95% CI),[17],"4.87 (−13.68, 23.41)"
same,Change from Baseline in UAS7 at Week 12: Mean (SD),[17],−4.70 (7.74)
same,Change from Baseline in UAS7 at Week 12: LS Mean (SE),[18],−18.73 (5.22)
same,Change from Baseline in UAS7 at Week 12: LS Mean Diff vs. placebo (95% CI),[18],"−12.81 (−29.81, 4.20)"
same,Change from Baseline in UAS7 at Week 12: Mean (SD),[18],−23.13 (14.76)
same,Change from Baseline in UAS7 at Week 12: LS Mean (SE),"Ethnicity Hispanic, 400 mg BID",−10.31 (3.59)
same,Change from Baseline in UAS7 at Week 12: LS Mean Diff vs. placebo (95% CI),"Ethnicity Hispanic, 400 mg BID","2.24 (−7.72, 12.19)"
same,Change from Baseline in UAS7 at Week 12: Mean (SD),"Ethnicity Hispanic, 400 mg BID",−10.23 (11.81)
same,Change from Baseline in UAS7 at Week 12: LS Mean (SE),"Ethnicity Hispanic, 400 mg QPM",−8.80 (2.97)
same,Change from Baseline in UAS7 at Week 12: LS Mean Diff vs. placebo (95% CI),"Ethnicity Hispanic, 400 mg QPM","3.74 (−5.35, 12.83)"
same,Change from Baseline in UAS7 at Week 12: Mean (SD),"Ethnicity Hispanic, 400 mg QPM",−10.26 (9.92)
same,Change from Baseline in UAS7 at Week 12: LS Mean (SE),"Ethnicity Hispanic, 400 mg TID",−13.76 (3.78)
same,Change from Baseline in UAS7 at Week 12: LS Mean Diff vs. placebo (95% CI),"Ethnicity Hispanic, 400 mg TID","−1.22 (−11.34, 8.91)"
same,Change from Baseline in UAS7 at Week 12: Mean (SD),"Ethnicity Hispanic, 400 mg TID",−15.49 (12.69)
same,Change from Baseline in UAS7 at Week 12: LS Mean (SE),[19],−16.16 (2.46)
same,Change from Baseline in UAS7 at Week 12: LS Mean Diff vs. placebo (95% CI),[19],"−7.92 (−14.63, −1.20)"
same,Change from Baseline in UAS7 at Week 12: Mean (SD),[19],−16.52 (12.39)
same,Change from Baseline in UAS7 at Week 12: LS Mean (SE),[20],9.79 (2.59)
same,Change from Baseline in UAS7 at Week 12: LS Mean Diff vs. placebo (95% CI),[20],"−1.54 (−8.49, 5.41)"
